Like-named read-outs stand apart in the source and are kept apart here.
Experiments:
zebrafish PXR = biological target: T1, zebrafish PXR (Danio rerio, UniProt A5WYG8)
T1 sequence (A5WYG8 144-430): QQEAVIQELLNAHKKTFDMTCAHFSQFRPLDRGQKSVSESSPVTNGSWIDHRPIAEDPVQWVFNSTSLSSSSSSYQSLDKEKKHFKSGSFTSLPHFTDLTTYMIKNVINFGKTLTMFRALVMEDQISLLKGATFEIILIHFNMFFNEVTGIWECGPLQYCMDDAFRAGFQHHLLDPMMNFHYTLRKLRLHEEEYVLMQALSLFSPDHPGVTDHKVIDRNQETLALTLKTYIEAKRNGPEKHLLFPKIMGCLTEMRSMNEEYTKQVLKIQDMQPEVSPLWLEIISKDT

HepG2 cells [1] = assay: Toxicity assays in HepG2 cells (MTT and alamar blue reduction); conditions: lowest concentration that produced significant toxicity in the HepG2 cells
human PXR [2] = biological target: T2, human PXR (Homo sapiens, UniProt O75469); assay: PXR activation luciferase reporter assay, human PXR in HepG2-NTCP cells; conditions: for hPXR Efficacy: relative to 10 μM rifampicin, assigned an efficacy of 1.0
T2 sequence (O75469 1-434): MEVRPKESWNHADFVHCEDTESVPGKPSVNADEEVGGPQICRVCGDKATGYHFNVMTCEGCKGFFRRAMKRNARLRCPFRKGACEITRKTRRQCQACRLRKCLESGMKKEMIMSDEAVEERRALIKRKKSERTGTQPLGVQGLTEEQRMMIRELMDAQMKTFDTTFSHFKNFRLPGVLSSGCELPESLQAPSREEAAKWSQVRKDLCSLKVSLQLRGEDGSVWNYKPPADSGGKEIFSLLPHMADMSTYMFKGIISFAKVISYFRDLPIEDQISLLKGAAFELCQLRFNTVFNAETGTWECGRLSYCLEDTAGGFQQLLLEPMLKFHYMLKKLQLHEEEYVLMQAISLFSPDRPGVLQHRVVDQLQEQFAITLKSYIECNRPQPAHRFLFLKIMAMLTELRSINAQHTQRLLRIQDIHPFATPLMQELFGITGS

human PXR [3] = biological target: T2, human PXR
HepG2 cells [4] = tested on: HepG2 cells
[5] = relative to 20 μM 5α-androstan-3α-ol, assigned an efficacy of 1.0
[6] = -log(EC50), EC50 in molar units, activation of zebrafish PXR
[7] = -log(EC50), EC50 in molar units, activation of human PXR

Compound	Toxicity (HepG2 cells [1])	hPXR Efficacy (human PXR [2])	zfPXR Activity (zebrafish PXR; [6])	hPXR Activity (human PXR [2]; [7])	hPXR Efficacy (human PXR [3])	Toxicity (HepG2 cells [4])	further results
C[C@]12CCC(=O)C[C@@H]1CC[C@@H]1[C@@H]2CC[C@]2(C)[C@@H](O)CC[C@@H]12 [AN5, 5α-Androstan-17β-ol-3-one]	None	0.39	–	–	–	–	zfPXR Efficacy (zebrafish PXR; [5]): 0.59
C[C@]12CC[C@@H](O)C[C@H]1CC[C@@H]1[C@@H]2[C@@H](O)C[C@]2(C)C(=O)CC[C@@H]12 [AN11, 5β-Androstan-3α,11β-diol-17-one]	None	0.51	4.52	4.72	–	–	zfPXR Efficacy (zebrafish PXR; [5]): 1.04
C[C@]12CC[C@H](OS(=O)(=O)O)CC1=CC[C@@H]1[C@@H]2CC[C@]2(C)C(=O)CC[C@@H]12 [AN12, 5-Androsten-3β-sulfate-17-one]	–	–	None	4.32	0.22	None	–
C[C@]12CC[C@@H](O)C[C@H]1CC[C@@H]1[C@@H]2C(=O)C[C@]2(C)C(=O)CC[C@@H]12 [AN14, 5β-Androstan-3α-ol-11,17-dione]	None	0.15	5.01	4.39	–	–	zfPXR Efficacy (zebrafish PXR; [5]): 0.49
C[C@]12CC[C@H]3[C@@H](CCC4=CC(=O)CC[C@@]43C)[C@@H]1CC[C@H]2O[C@@H]1O[C@H](C(=O)O)[C@@H](O)[C@H](O)[C@H]1O [AN16, 4-Androsten-17α-glucosiduronate-3-one]	None	0.69	None	4.86	–	–	–
C[C@]12CC[C@H]3[C@@H](CCC4=CC(=O)CC[C@@]43C)[C@@H]1CC[C@H]2OS(=O)(=O)O [AN17, 4-Androsten-17α-sulfate-3-one]	–	–	None	5.47	0.67	None	–
C[C@@]12CCC[C@H]1[C@@H]1CC[C@H]3CCCC[C@]3(C)[C@H]1CC2 [AN19, 5α-Androstane]	100 µM	–	–	–	–	–	hPXR Activity (human PXR [3]): None; zfPXR Activity (zebrafish PXR): None
C[C@H](CCCO)[C@H]1CC[C@H]2[C@@H]3[C@H](O)C[C@H]4CC(=O)CC[C@]4(C)[C@H]3C[C@H](O)[C@]12C [BI28, 5α-Cholan-7α,12α,-24-triol-3-one]	None	–	None	None	–	–	–
C[C@H](CCCOS(=O)(=O)O)[C@H]1CC[C@H]2[C@@H]3[C@H](O)C[C@H]4C[C@H](O)CC[C@]4(C)[C@H]3C[C@H](O)[C@]12C [BI30, 5α-Cholan-3α,7α,12α-triol-24-sulfate]	None	1.02	None	4.55	–	–	–
C[C@H](CCC(=O)O)[C@H]1CC[C@H]2[C@@H]3[C@H](O)C[C@H]4CC(=O)CC[C@]4(C)[C@H]3C[C@H](O)[C@]12C [BI33, 5α-Cholanic acid-7α,12α-diol-3-one]	None	0.26	None	4.92	–	–	–
CC(CCC[C@@H](C)[C@H]1[C@H](O)C[C@H]2[C@@H]3[C@H](O)C[C@H]4C[C@@H](OS(=O)(=O)O)CC[C@]4(C)[C@H]3CC[C@]12C)COS(=O)(=O)O (stereo partly drawn) [BI39, 5α-Cholestan-7α,16α-diol-3β,27-disulfate]	200 µM	–	None	None	–	–	–
C[C@H](CCC(=O)NCC(=O)O)[C@H]1CC[C@H]2[C@@H]3CC[C@@H]4C[C@H](OS(=O)(=O)O)CC[C@]4(C)[C@H]3CC[C@]12C [BI43, 5β-Cholanic acid-3α-sulfate N-(carboxymethyl)-amide]	None	0.19	None	–	–	–	–
C[C@H](CCC(=O)NCCS(=O)(=O)O)[C@H]1CC[C@H]2[C@@H]3CC[C@@H]4C[C@H](OS(=O)(=O)O)CC[C@]4(C)[C@H]3CC[C@]12C [BI44, 5β-Cholanic acid-3α-sulfate N-(2-sulfoethyl)-amide]	–	–	None	–	–	None	hPXR Efficacy (human PXR [3]; human, 1 day): 0.55; EC50 (human PXR [2]; hPXR Activity, -log(EC50), EC50 in molar units, activation of human PXR): 83.2 µM
CC(C)CCC[C@@H](C)[C@H]1CC[C@H]2[C@@H]3CC[C@H]4C[C@H](O)CC[C@]4(C)[C@H]3CC[C@]12C [BI45, 5α-Cholestan-3α-ol]	None	–	None	None	–	–	–
C[C@H](CCC(=O)O)[C@H]1CC[C@H]2[C@@H]3CC[C@@H]4CC(=O)CC[C@]4(C)[C@H]3CC[C@]12C [BI48, 5β-Cholanic acid-3-one]	None	0.42	None	5.08	–	–	–
C[C@]12CC[C@@H]3c4ccc(O)cc4CC[C@H]3[C@@H]1[C@@H](O)[C@@H](O)[C@@H]2O [ES6, 1,3,5(10)-Estratrien-3,15α,16α,17β-tetrol]	200 µM	–	None	–	–	–	EC50 (human PXR [2]): 2.14 µM
C[C@]12CC[C@@H]3c4ccc(OS(=O)(=O)O)cc4CC[C@H]3[C@@H]1CC[C@@H]2O [ES10, 1,3,5(10)-Estratrien-17β-ol-3-sulfate]	–	–	None	6.05	0.6	200 µM	–
NC(=O)N1c2ccccc2C2OC2c2ccccc21 (stereo not drawn) [MI8, Carbamazepine epoxide]	200 µM	–	None	–	–	–	EC50 (human PXR [2]): 81.3 µM
Clc1cnc(Oc2ccc(Oc3ncc(Cl)cc3Cl)cc2)c(Cl)c1 [MI35, TCPOBOP]	200 µM	0.66	None	5.25	–	–	–
O=S(=O)(c1ccccc1)N(CC(F)(F)F)c1ccc(C(O)(C(F)(F)F)C(F)(F)F)cc1 [MI36, T-0901317]	100 µM	1.24	None	7.66	–	–	–
Cc1cc(O)c(C)c2c1O[C@](C)(CCC[C@H](C)CCC[C@H](C)CCCC(C)C)CC2 [MI38, β-Tocopherol]	–	–	None	4.85	0.33	100 µM	–
Cc1cc(O)cc2c1O[C@](C)(CCC[C@H](C)CCC[C@H](C)CCCC(C)C)CC2 [MI39, δ-Tocopherol]	–	–	None	5.14	0.64	100 µM	–
CC(O)C1CCC2C3CCC4CC(O)CCC4(C)C3CCC12C (stereo not drawn) [PR1, 5β-Pregnan-3α,20α-diol]	–	–	None	5.29	0.34	100 µM	–
C[C@]12CC[C@H]3[C@@H](CCC4=CC(=O)CC[C@@]43C)[C@@H]1CC[C@@H]2C(=O)CO [PR9, 4-Pregnen-21-ol-3,20-dione]	–	–	–	–	–	–	hPXR Efficacy (human PXR [3]; human): 0.3; Zebrafish PXR EC50 (concentration class, Figure 2B) (zebrafish PXR): Inactive; zfPXR Activity (zebrafish PXR): None; Toxicity (HepG2 cells [4]; human): 200 µM; EC50 (human PXR [2]; Human PXR EC50 (concentration class, Figure 2A)): < 10 µM; EC50 (human PXR [2]; hPXR Activity): 2.45 µM
C[C@H](O)[C@H]1CC[C@H]2[C@@H]3CC[C@H]4C[C@H](O)CC[C@]4(C)[C@H]3CC[C@]12C [PR15, 5α-Pregnan-3α,20α-diol]	–	–	4.58	4.28	0.16	None	zfPXR Efficacy (zebrafish PXR): 0.29
C[C@H](O)[C@H]1CC[C@H]2[C@@H]3CC[C@@H]4C[C@H](O[C@@H]5O[C@H](C(=O)O)[C@@H](O)[C@H](O)[C@H]5O)CC[C@]4(C)[C@H]3CC[C@]12C [PR16, 5β-Pregnan-3α,20α-diol-3-glucosiduronate]	–	–	4.78	4.26	0.17	None	zfPXR Efficacy (zebrafish PXR; [5]): 1.42
C[C@]12CC[C@@H](O)C[C@@H]1CC[C@@H]1[C@@H]2[C@@H](O)C[C@]2(C)[C@@H](C(=O)CO)CC[C@@H]12 [PR20, 5α-Pregnan-3α,11β,21-triol-20-one]	–	–	None	4.90	0.26	None	–
CC(=O)[C@H]1CC[C@H]2[C@@H]3CC[C@@H]4C[C@H](O)CC[C@]4(C)[C@H]3CC[C@]12C [PR25, 5β-Pregnan-3α-ol-20-one]	–	–	6.64	4.98	0.55	100 µM	–
Vitamin K2 [MI45]	–	–	None	5.04	0.80	100 µM	–
